Common to all, as to type: functional
In one experiment the test system is HT-29. In words: Cytotoxicity against human HT-29 cells assessed as reduction in cell growth after 48 hrs by SRB assay. Background: In SRB staining, fixed cells bind dye roughly in proportion to their protein.
The subject of experiment [1] is MCF7. As to the kind of experiment: Cytotoxicity against human MCF7 cells assessed as reduction in cell growth after 48 hrs by SRB assay.
Experiment [2] deals with MCF7. As to the kind of experiment: Cytotoxicity against human MCF7 cells assessed as reduction in cell viability after 72 hrs by MTS assay. Conditions: MCF7, 72 h.

Active and inactive are the calls of the source. The rule behind the calls is not given here.

One may read the GI50 as the concentration at which growth is held to half of that of the control. For `COc1cc(Cc2c[nH]c3cc(F)ccc23)c(N)c(OC)c1OC`, the GI50 entry in the experiment on HT-29 and in the experiment with MCF7 [1] was “inactive” each time.

Consider `CCOC(=O)c1[nH]c2ccc(Br)cc2c1C(=O)c1cc(OC)c(OC)c(OC)c1N`, for which the GI50 was found to be 5380 nM in the experiment with HT-29 (HT-29, 48 h) and 425 nM in the experiment on MCF7 [1] (MCF7, 48 h).

Take `COc1ccc(/C=C\c2cc(OC)c(OC)c(OC)c2)cc1O` [COMBRETASTATIN A4]: the 50% growth inhibitory concentration (GI50) in the experiment with HT-29 (HT-29, 48 h) was 260 nM; with MCF7 [1] (MCF7, 48 h), 25 nM.

As for `COc1cc(C(=O)c2c[nH]c3ccccc23)c(N)c(OC)c1OC`, the GI50 is 9800 nM in the experiment with HT-29 (HT-29, 48 h) and 900 nM in the experiment with MCF7 [1] (MCF7, 48 h).

Regarding `CCOC(=O)c1[nH]c2ccc(OC)cc2c1C(=O)c1cc(OC)c(OC)c(OC)c1N`, the 50% growth inhibitory concentration (GI50) came out at 5150 nM in the experiment on HT-29 (HT-29, 48 h) and 540 nM in the experiment on MCF7 [1] (MCF7, 48 h).

In the case of `CCOC(=O)c1[nH]c2ccccc2c1C(=O)c1cc(OC)c(OC)c(OC)c1N`, the GI50 came out at 5630 nM with HT-29 (HT-29, 48 h) and 480 nM in the experiment on MCF7 [1] (MCF7, 48 h).

Turning to `COc1cc(Cc2c[nH]c3c(OC)cccc23)c(N)c(OC)c1OC`, the GI50 entry with HT-29 and in the experiment with MCF7 [1] was “inactive” throughout.

`COc1cc(Cc2c[nH]c3ccc(Cl)cc23)c(N)c(OC)c1OC`: the GI50 result in the experiment on HT-29 and with MCF7 [1] was “inactive” throughout.

As for `COc1ccc2[nH]cc(C(=O)c3cc(OC)c(OC)c(OC)c3N)c2c1`, the concentration for 50% growth inhibition (GI50) worked out at 950 nM in the experiment on HT-29 (HT-29, 48 h) and 528 nM with MCF7 [1] (MCF7, 48 h).

As for `COc1ccc2[nH]cc(Cc3cc(OC)c(OC)c(OC)c3N)c2c1`, the concentration for 50% growth inhibition (GI50) is > 100000 nM with HT-29 (HT-29, 48 h) and 32800 nM in the experiment on MCF7 [1] (MCF7, 48 h).

Take `COC(=O)c1[nH]c2ccc(Cl)cc2c1C(=O)c1cc(OC)c(OC)c(OC)c1N`: the GI50 in the experiment with HT-29 (HT-29, 48 h) turned out to be 2140 nM; in the experiment with MCF7 [1] (MCF7, 48 h), 171 nM.

For `COc1cc(C(=O)c2c[nH]c3ccc(Br)cc23)c(N)c(OC)c1OC`, the GI50 came to 3830 nM with HT-29 (HT-29, 48 h) and 360 nM in the experiment on MCF7 [1] (MCF7, 48 h).

Turning to `COC(=O)c1[nH]c2ccc(Br)cc2c1C(=O)c1cc(OC)c(OC)c(OC)c1N`, the GI50 was 1940 nM in the experiment with HT-29 (HT-29, 48 h) and 124 nM in the experiment with MCF7 [1] (MCF7, 48 h).

`COc1cc(Cc2c[nH]c3ccc(Br)cc23)c(N)c(OC)c1OC`: the GI50 result in the experiment with HT-29 and in the experiment with MCF7 [1] was “inactive” throughout.

Regarding `COc1cc2[nH]cc(C(=O)c3cc(OC)c(OC)c(OC)c3N)c2cc1OC`, the concentration for 50% growth inhibition (GI50) with HT-29 (HT-29, 48 h) came out at 24400 nM; in the experiment on MCF7 [1] (MCF7, 48 h), 38400 nM.

Consider `COc1ccc2c(C(=O)c3cc(OC)c(OC)c(OC)c3)c[nH]c2c1`, for which the GI50 in the experiment on MCF7 [2] worked out at 7 nM.

For `COc1cc2[nH]cc(Cc3cc(OC)c(OC)c(OC)c3N)c2cc1OC`, the GI50 result in the experiment with HT-29 and with MCF7 [1] was “inactive” each time.

Take `COc1cc(Cc2c[nH]c3ccc(C)cc23)c(N)c(OC)c1OC`: the GI50 entry in the experiment with HT-29 and in the experiment on MCF7 [1] was “inactive” throughout.

Turning to `COc1cc(C(=O)c2c[nH]c3c(OC)cccc23)c(N)c(OC)c1OC`, the concentration for 50% growth inhibition (GI50) in the experiment on HT-29 (HT-29, 48 h) amounted to 48600 nM; with MCF7 [1] (MCF7, 48 h) it was 9960 nM.

`COc1cc(C(=O)c2c[nH]c3cc(F)ccc23)c(N)c(OC)c1OC`: the concentration for 50% growth inhibition (GI50) turned out to be 64200 nM with HT-29 (HT-29, 48 h) and 42800 nM in the experiment on MCF7 [1] (MCF7, 48 h).

Take `COc1cc(C(=O)c2c[nH]c3cccc(OC)c23)c(N)c(OC)c1OC`: the GI50 with HT-29 (HT-29, 48 h) is > 100000 nM; in the experiment on MCF7 [1] (MCF7, 48 h), > 100000 nM.

As for `COc1ccc2c(Cc3cc(OC)c(OC)c(OC)c3N)c[nH]c2c1`, the GI50 was determined as 74800 nM with HT-29 (HT-29, 48 h) and 1830 nM in the experiment on MCF7 [1] (MCF7, 48 h).

Consider `COc1cc(C(=O)c2c[nH]c3ccc(C)cc23)c(N)c(OC)c1OC`, for which the concentration for 50% growth inhibition (GI50) is > 100000 nM in the experiment with HT-29 (HT-29, 48 h) and 12400 nM in the experiment on MCF7 [1] (MCF7, 48 h).

As for `COc1ccc2c(C(=O)c3cc(OC)c(OC)c(OC)c3N)c[nH]c2c1`, the GI50 turned out to be 143 nM with HT-29 (HT-29, 48 h) and 13 nM in the experiment on MCF7 [1] (MCF7, 48 h).

Turning to `CCOC(=O)c1[nH]c2ccc(Cl)cc2c1C(=O)c1cc(OC)c(OC)c(OC)c1N`, the concentration for 50% growth inhibition (GI50) in the experiment with HT-29 (HT-29, 48 h) is 6840 nM; with MCF7 [1] (MCF7, 48 h), 590 nM.

With `COc1cc(Cc2c[nH]c3cccc(OC)c23)c(N)c(OC)c1OC`, the GI50 result with HT-29 and in the experiment with MCF7 [1] was “inactive” each time.

As to `COC(=O)c1[nH]c2ccc(OC)cc2c1C(=O)c1cc(OC)c(OC)c(OC)c1N`, the concentration for 50% growth inhibition (GI50) was 1240 nM with HT-29 (HT-29, 48 h) and 102 nM with MCF7 [1] (MCF7, 48 h).

As to `COC(=O)c1[nH]c2ccccc2c1C(=O)c1cc(OC)c(OC)c(OC)c1N`, the GI50 in the experiment on HT-29 (HT-29, 48 h) is 2380 nM; in the experiment with MCF7 [1] (MCF7, 48 h), 193 nM.

For `COc1cc(C(=O)c2c[nH]c3ccc(Cl)cc23)c(N)c(OC)c1OC`, the 50% growth inhibitory concentration (GI50) in the experiment with HT-29 (HT-29, 48 h) worked out at 4850 nM; in the experiment with MCF7 [1] (MCF7, 48 h), 321 nM.

On to `COc1cc(Cc2c[nH]c3ccccc23)c(N)c(OC)c1OC`, for which the GI50 in the experiment on HT-29 (HT-29, 48 h) was > 100000 nM; with MCF7 [1] (MCF7, 48 h), 45000 nM.

The record behind these values is ChEMBL document CHEMBL3792320, “Synthesis, biological evaluation and molecular docking studies of 2-amino-3,4,5-trimethoxyaroylindole derivatives as novel anticancer agents” (2016).
